How the values were obtained:
porcine α-amylase = target: T1, porcine α-amylase (Sus scrofa, UniProt P00690); test: Inhibitory effect on porcine α-amylase; assay type: biochemical; details: FIG. 4; 100 μM, pH 6.8, starch substrate
T1 construct: purchased Sigma
T1 sequence (P00690 16-511): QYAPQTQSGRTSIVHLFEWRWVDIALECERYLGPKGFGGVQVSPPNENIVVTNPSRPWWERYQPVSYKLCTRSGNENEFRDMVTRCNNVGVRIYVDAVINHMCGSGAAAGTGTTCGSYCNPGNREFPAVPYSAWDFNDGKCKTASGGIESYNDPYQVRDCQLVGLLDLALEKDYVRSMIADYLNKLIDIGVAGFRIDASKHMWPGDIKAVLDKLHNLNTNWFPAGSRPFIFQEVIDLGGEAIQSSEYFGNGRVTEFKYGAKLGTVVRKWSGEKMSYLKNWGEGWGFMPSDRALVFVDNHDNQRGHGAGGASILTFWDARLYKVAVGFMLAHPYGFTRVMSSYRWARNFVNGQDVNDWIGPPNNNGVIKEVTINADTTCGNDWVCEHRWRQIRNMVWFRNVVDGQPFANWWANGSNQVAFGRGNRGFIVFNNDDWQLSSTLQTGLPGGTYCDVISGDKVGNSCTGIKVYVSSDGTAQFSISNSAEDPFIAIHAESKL
Experimental: (§1) A glucose assay kit was purchased for use from Youngdong Company (Seoul, Korea). In addition, from Sigma Company, porcine α-amylase, yeast α-glucosidase, 3,5-dinitrosalicylic acid (DNS), p-nitrophenol glucoside (pNPG), rat intestinal acetone powder, sucrose, and maltose were purchased. Soluble starch was obtained from Samchun Chemical Company (Seoul, Korea), and Acarbose was purchased from Tokyo chemical industry Company (Tokyo, Japan).
5 μl of α-amylase (0.1 U/mL) was diluted with 50 mM phosphate buffer (pH 6.8), and the diluted solution was mixed with each of 100 μM (+)-isonitramine (1) or Compound 2 to 6 of Example 1. In addition, as a positive control group, Acarbose was mixed at the same concentration with (+)-isonitramine (1). […]
25 μl of DNS was added to the cooled reaction solutions, and a color reaction was induced at a temperature of 100° C. for 5 minutes. […] The solutions in which the color reaction was induced were transferred to a 96-well plate, and absorbance thereof was measured at a wavelength of 540 nm by using a 96-well microplate reader.
Here, the inhibitory effect was calculated according to Equation 1: Enzymatic inhibitory activity=(1−Ax/A0)×100% [Equation 1] • Ax indicates an absorbance value of […] upon treatment of isonitramine

PPARγ = test: RT-PCR mRNA expression in adipocytes: PPARγ; assay type: cell-based, mouse; details: FIG. 3, β-actin internal control
Experimental: (§6) According to the manufacturer's instructions, total cell RNA of the undifferentiated adipocytes and differentiated adipocytes was extracted by using Trizol (available from Invitrogen).
(§7) The RNA (4 μg) was reverse-transcribed into cDNA by using M-MLV reverse transcriptase (available from Promega). Accordingly, the expression of peroxisome proliferator-activated receptor γ (PPARγ), CCAAT/enhancer binding protein-α (C/EBPα), adipocyte protein 2 (aP2), lipoprotein lipase (LPL), and adiponectin was each confirmed.
(§8) The variable number of cycles was used to identify the amplification occurred in the linear phase.
(§9) In the PCR amplification, β-actin was used as an internal control group. The PCR products were separated by using 2.0% agarose gel, followed by being visualized by RedSafe nucleic acid staining (available from Intron, Korea) and UV irradiation.

[1] = system: 3T3-L1 mouse preadipocytes; test: Cytotoxicity in adipocyte differentiation experiment; assay type: cell-based; details: FIG. 3; adipocytes
LPL = test: RT-PCR mRNA expression in adipocytes: LPL; assay type: cell-based, mouse; details: FIG. 3, β-actin internal control
Experimental: as §6, §7, §8, §9

adiponectin = test: RT-PCR mRNA expression in adipocytes: adiponectin; assay type: cell-based, mouse; details: FIG. 3, β-actin internal control
Experimental: as §6, §7, §8, §9

[2] = system: metabolic enzymes essential for carbohydrate absorption; test: Selectivity of inhibition of carbohydrate metabolism enzymes (FIG. 4); assay type: biochemical; details: 100 μM, as compared with Compound 4 to 6
Experimental: The mixtures were pre-cultured at a temperature of 37° C. for 10 minutes, and 25 μl of 0.5% starch solution was added thereto, followed by being cultured at a temperature of 37° C. for 10 minutes. Then, the mixtures were cultured again at a temperature of 100° C. for 5 minutes to stop the reaction, and the mixtures were cooled.
25 μl of DNS was added to the cooled reaction solutions, and a color reaction was induced at a temperature of 100° C. for 5 minutes. The resulting solutions were cooled again. The solutions in which the color reaction was induced were transferred to a 96-well plate, and absorbance thereof was measured at a wavelength of 540 nm by using a 96-well microplate reader.
Here, the inhibitory effect was calculated according to Equation 1: Enzymatic inhibitory activity=(1−Ax/A0)×100% [Equation 1] • Ax indicates an absorbance value of a control group • A0 indicates an absorbance value of a test group upon treatment of isonitramine

zebrafish = test: Postprandial hyperglycemia in diabetic-inducible (streptozocin) zebrafish; assay type: in vivo; details: FIG. 6; STZ-injected zebrafish fed flake mixed with compound at various concentrations for 1 hour
Experimental: The zebrafish was anesthetized by placing it in water at a temperature of 8° C. for 20 seconds.
For intraperitoneal injection, 350 mg/kg of a solution of 0.9% streptozocin (available from Sigma, St. Louis, Mo.) in 0.09% NaCl solution was injected with a syringe having 25 gauge needle (available from Trajan Scientific, Australia). Here, to a control group of zebrafish, the same amount of PBS was injected intraperitoneally. After the completion of the injection, the test and control groups of zebrafish were bread at a temperature of 24° C.
The zerafish was subjected to intraperitoneal injection of STZ or PBS three times (350 mg/kg) for a week. After the final injection, the zerafish was fed with commercial flake food (available from Tetrabits tropical flakes, Tetra, Germany) for 5 days.
After fasting for 24 hours, the zebrafish to which PBS was injected was fed with commercial flask food, and the zebrafish to which STZ was injected was fed with flake mixed with (+)-isonitramine (1) at various concentrations, for 1 hour. Afterwards, plasma blood of each zebrafish was enzymatically measured by using a glucose trinder kit.

HIT-T15 cells = test: Insulin secretion of HIT-T15 cells (insulin ELISA); assay type: cell-based; details: FIG. 7
Experimental: To identify effects of isonitramine derivatives on insulin secretion, a type of insulin cells, e.g., HIT-T15 cells, were obtained by the Korean Cell Line Back, and then, subcultured. In detail, the HIT-T15 cells were cultured in a RPMI1640 medium (available from invitrogen. Co, USA) supplemented with 10% fetal bovine serum (FBS, available from invitrogen. Co, New Zealand 10091-148), 100 mu/ml of penicillin, and 100 μg/ml of streptomycin, under humidification conditions of a temperature of 37° C. and 5% CO2.
Insulin secretion influenced by (+)-isonitramine was measured according to the recommended method using insulin ELISA kit (Cat.10-1113-01, available from Mercodia Company). First, the HIT-T15 cells were loaded to a 96-well plate at a concentration of 5×10^4 cells/well, and cultured until reaching 70% to 80% cell confluency in an incubator at a temperature of 37° C. in a CO2 incubator. Then, the cells were pre-treated with 500 μM alloxan, which induces a pancreatic-specific toxic response, for 30 minutes. Afterwards, (+)-isonitramine was added to each well, and cultured for 24 hours. The culture solution was collected therefrom, and subjected to a centrifugation at a speed of about 15,000 rpm for 3 minutes. […] The changes resulted from the termination of the reaction were measured by using an ELISA-reader (VERSA max, micro-reader, MDS. Co, USA) at a wavelength of 450 nm.

[3] = system: phosphoenolpyruvate carboxykinase (PEPCK); test: PEPCK expression in zebrafish embryo (RT-PCR); assay type: in vivo; details: FIG. 9, with 100 mM cAMP and 100 mM dexamethasone, 48 hours
Experimental: (§2) In the experiment performed to verify the effect on the amount of insulin secretion, the zebrafish embryo underwent 96 hour post-fertilization (hpf) was exuviated, and then, treated with isonitramine for 48 hours. In the experiment performed to verify the effect on gluconeogenesis, 100 mM cyclic AMP (cAMP) and 100 mM dexamethasone (DEX) were simultaneously treated with isonitramine, and then, cultured for 48 hours.
(§3) From the cultured embryo above, TRIzol (available from Invitrogen) was used to isolate mRNA, and the isolated RNA was synthesized to cDNA by using iScript cDNA Synthesis Kit (available from Bio-Rad). Afterwards, to amplify the cDNA, primers listed in Table 2 were used, wherein each primer was purchased from Bioneer.

aP2 = test: RT-PCR mRNA expression in adipocytes: aP2; assay type: cell-based, mouse; details: FIG. 3, β-actin internal control
Experimental: as §6, §7, §8, §9

zf preproinsulin (insa) = test: Insulin expression in zebrafish embryo (RT-PCR); assay type: in vivo; details: FIG. 8; zebrafish embryo 96 hpf treated 48 hours
Experimental: as §2, §3

yeast α-glucosidase = target: T2, yeast α-glucosidase (Saccharomyces cerevisiae, UniProt P53341); test: Inhibitory effect on yeast α-glucosidase (pNPG substrate); assay type: biochemical; details: FIG. 4; 100 μM, pH 5.6, pNPG substrate
T2 construct: purchased Sigma
Experimental: as §1
5 μl of […] (0.1 U/mL) was diluted with 50 mM sodium acetate buffer (pH 5.6), and the diluted solution was mixed with each of 100 μM (+)-isonitramine (1) or Compound 2 to 6 of Example 1. In addition, as a positive control group, Acarbose was mixed at the same concentration with (+)-isonitramine (1).
The mixtures were pre-cultured at a temperature of 37° C. for 10 minutes, and 25 μl of pNPG was added thereto, followed by being cultured at a temperature of 60° C. for 10 minutes. Then, 1N NaOH was added thereto to stop the reaction.
Afterwards, the resulting solution in which a color reaction was induced was transferred to a 96-well plate, and absorbance thereof was measured at a wavelength of 405 nm by using a 96-well microplate reader.

C/EBPα = details: FIG. 3; RT-PCR, β-actin internal control
Experimental: as §6, §7, §8, §9

[4] = system: 3T3-L1 mouse preadipocytes; test: Analysis of triglyceride concentration in differentiated adipocytes; assay type: cell-based; details: FIG. 2B; adipocytes differentiated 8 days with 100 μM or 500 μM
Experimental: (§4) 3T3-L1 mouse preadipocytes were cultured in a Dulbecco's modified Eagle's medium (DMEM) supplemented with 10% newborn calf serum (Gibco BRL, NY, USA) and antibiotics (100 U/ml penicillin and 100 μg/ml streptomycin, Gibco BRL, NY, USA) in an incubator under humidification conditions of a temperature of 37 r and 5% CO2.
(§5) Afterwards, the cultured 3T3-L1 mouse cells were treated with 0.5 mM 1-methyl-3-isobutylxanthine purchased from Sigma (St. Louis, Mo.), 1 μM dexamethasone, 1 μg/mL insulin, and 10% fetal bovine serum (FBS, Gibco BRL), and then, cultured for 2 days to induce differentiation. After 2 days, the cultured medium was replaced with a fresh DMEM supplemented with 10% FBS and 1 μg/mL insulin. For the next 4 days, the cultured medium was replaced with a fresh DMEM supplemented with 10% FBS every day.
The concentration of triglyceride in the cells was measured by using a triglyceride reagent purchased from Sigma and a free glycerol reagent.
The adipocytes were differentiated for 8 days with (+)-isonitramine 1 at a concentration of 100 μM or 500 μM, in a 6-well plate.
To analyze the concentration of triglyceride in the cells, the cells were washed with PBS, and then, lysed with 100 μl of a lysis buffer. […]
Following the completion of the culturing, the absorbance of the cells was measured by using a spectrophotometer at a wavelength of 540 nm.

[5] = system: 3T3-L1 mouse preadipocytes; test: Adipocyte differentiation of 3T3-L1 preadipocytes (Nile red staining); assay type: cell-based; details: FIG. 2A
Experimental: as §4, §5
The undifferentiated or differentiated cells were washed three times with phosphate-buffered saline (PBS), and then, fixed with 4% […] (PFA) at room temperature for 1 hour. Afterwards, the resulting cells were washed three times with PBS, and stained with 0.5 μg/ml of nile red (available from Sigma, St. Louis, Mo.) for 10 minutes. Following the completion of the staining, the resulting cells were washed with PBS, and the nuclei thereof were stained again with 4′-6-diamidino-2-phenylindole, (DAPI, available from Invitrogen). […]

zebrafish larvae = test: Zebrafish toxicity (FIG. 5); assay type: in vivo; details: zebrafish model

T2 sequence (P53341 whole entry): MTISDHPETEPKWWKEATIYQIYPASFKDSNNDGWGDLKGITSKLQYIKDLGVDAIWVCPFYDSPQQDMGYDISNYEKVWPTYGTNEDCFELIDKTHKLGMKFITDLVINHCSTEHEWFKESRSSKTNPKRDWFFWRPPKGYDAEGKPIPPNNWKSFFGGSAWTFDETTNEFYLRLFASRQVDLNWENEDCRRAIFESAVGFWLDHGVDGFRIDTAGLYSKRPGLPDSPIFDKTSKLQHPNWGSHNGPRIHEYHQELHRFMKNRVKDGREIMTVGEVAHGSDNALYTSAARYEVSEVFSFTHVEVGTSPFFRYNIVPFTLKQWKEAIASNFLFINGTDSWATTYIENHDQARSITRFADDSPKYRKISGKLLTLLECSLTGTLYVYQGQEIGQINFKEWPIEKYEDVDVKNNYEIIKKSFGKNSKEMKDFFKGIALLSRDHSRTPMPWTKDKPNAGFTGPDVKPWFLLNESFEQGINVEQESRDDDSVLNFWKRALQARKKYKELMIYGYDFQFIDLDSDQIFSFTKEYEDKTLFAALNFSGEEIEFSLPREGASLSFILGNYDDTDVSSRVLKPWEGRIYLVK

Row | SMILES | inhibition of α-amylase (porcine α-amylase) | mRNA expression of PPARγ (PPARγ) | cytotoxicity [1] | mRNA expression of LPL (LPL) | mRNA expression of adiponectin (adiponectin) | selective inhibitory effects on metabolic enzymes essential for carbohydrate absorption [2] | blood glucose (zebrafish) | insulin secretion (HIT-T15 cells; HIT-T15 cells pre-treated with 500 μM alloxan 30 minutes, then compound 24 hours) | inhibitory effect on the expression of PEPCK [3] | mRNA expression of aP2 (aP2) | expression of insulin (zf preproinsulin (insa)) | inhibition of α-glucosidase (yeast α-glucosidase) | mRNA expression of C/EBPα (C/EBPα) | concentration of triglyceride [4] | differentiation of 3T3-L1 mouse preadipocytes into mature adipocytes [5] | cardiovascular toxicity (zebrafish larvae) | developmental toxicity (zebrafish larvae) | insulin secretion (HIT-T15 cells; HIT-T15 cells treated with 500 μM alloxan, normal state 33.39±1.12 ng/mL (n=4))
1 | O[C@@H]1CCCC[C@]12CCCNC2 [(+)-isonitramine (1), (+)-isonitramine] | hardly inhibited | inhibited | without cytotoxicity | weakened | weakened | selective inhibitory effects | reduction of blood glucose in a concentration-dependent manner | increasing the insulin secretion in a concentration-dependent manner | significantly increased in proportion to the concentration | weakened | increased | inhibiting | inhibited | decreased the concentration of triglyceride in a concentration-dependent manner | inhibited the differentiation | no | no | 
2 | O=C1NC(=O)C(=O)C(=O)N1 [alloxan, reference compound] |  |  |  |  |  |  |  |  |  |  |  |  |  |  |  |  |  | 18.92 ± 0.43 ng/mL
